According to patent US20240325326A1, “METHOD OF TREATING PULMONARY FIBROSIS BY TARGETING GLYCOGEN UTILIZATION” (University of Kentucky Research Foundation, priority 2023, published 2024):
“Also recorded” adds a separate entry of the source.

Test system: diseased human lung fibroblasts (DHLF)
Assay: Fibrosis-related gene expression (Bio-rad Prime PCR Fibrosis gene panel) in human lung fibroblasts treated for two days with a laforin inhibitor
Assay type: cell-based
Conditions: NHLF or DHLF derived from idiopathic pulmonary fibrosis patients; treated two days vs vehicle control; mRNA; n=3 samples per condition; FIG. 14
Protocol: Normal human lung fibroblasts (NHLF) or diseased human lung fibroblasts (DHLF) derived from idiopathic pulmonary fibrosis patients were treated for two days with a laforin inhibitor (or vehicle control) before harvesting mRNA and assessing gene expression. Samples were run on Bio-rad Prime PCR Fibrosis gene panel plates with n=3 samples per condition. *p<0.05, ***p<0.001 two-tailed student's t-test.
Normal human lung fibroblasts (NHLF) or diseased human lung fibroblasts (DHLF) derived from idiopathic pulmonary fibrosis patients were treated for two days with a laforin inhibitor (or vehicle control). […] Following treatment, mRNA was harvested from the cells and gene expression was assessed.

Question: O=C(Nc1ccc(OCc2ccccc2)c(Cl)c1)C(=O)Nc1ccccc1NC(=O)C(c1ccccc1)S(=O)(=O)O (stereo not shown) [L319-21-M50] was tested. Which fibrosis-related gene expression did it give?
Answer: Its fibrosis-related gene expression is “disease-specific expression patterns being rescued by laforin inhibition; also recorded: decreases fibrosis-related gene expression in diseased human lung fibroblasts”.
